According to PMC4188773 (Cell calcium, 2014):
Values after ≈ are worked out from the molar mass of the structure shown. Values joined by “and” are separate entries in the source; they are usually repeats but may differ in a detail not shown here. Equal entries are not always repeated. “Also recorded” adds a separate entry of the source.

Assays:
[1] = molecular target: T1, mouse eugenol OR (mOR-EG) (Mus musculus, UniProt Q920P2); assay: dual read-out assay, mOR-EG/PLC and mOR-EG/AC responses compared; format: cell-based; details: for AC-/PLC- mediated Ca2+ response (result in words): both read-outs, up to 1-5 mM; for functional bias between PLC and AC pathways (in words): pair-wise comparison of EC50 values
T1 sequence (Q920P2 1-313): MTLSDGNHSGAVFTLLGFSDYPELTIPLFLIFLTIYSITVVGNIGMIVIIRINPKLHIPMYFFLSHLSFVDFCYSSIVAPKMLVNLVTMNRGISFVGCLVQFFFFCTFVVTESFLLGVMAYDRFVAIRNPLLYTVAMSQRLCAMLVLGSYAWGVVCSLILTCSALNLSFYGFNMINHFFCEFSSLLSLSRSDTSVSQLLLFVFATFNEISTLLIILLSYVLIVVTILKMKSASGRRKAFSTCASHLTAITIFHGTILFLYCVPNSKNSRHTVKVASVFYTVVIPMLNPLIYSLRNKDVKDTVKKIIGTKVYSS

[2] = pH7; source not stated; cited from earlier work
[3] = source not stated; cited from earlier work
CNGC-camp = assay: stimulation of endogenous purinergic Gαq pathway, CNGC-camp read-out; format: cell-based, rat; details: 100μM, saturating
[4] = molecular target: T1, mouse eugenol OR (mOR-EG); assay: mOR-EG/PLC Ca2+ imaging: mOR-EG + Gα15 in HEK293T cells; format: cell-based; details: for decay time 90% to 10%, PLC-dependent Ca2+ response / time of peak, PLC-dependent Ca2+ response / time to rise 10% to 90%, PLC-dependent Ca2+ response: saturating response parameters
[5] = molecular target: T1, mouse eugenol OR (mOR-EG); assay: mOR-EG/AC Ca2+ imaging: mOR-EG + Gαolf + CNGC-camp in HEK293T cells; format: cell-based; details: for decay time 90% to 10%, AC-dependent Ca2+ response / time of peak, AC-dependent Ca2+ response / time to rise 10% to 90%, AC-dependent Ca2+ response: saturating response parameters
[6] = molecular target: T1, mouse eugenol OR (mOR-EG); format: cell-based; details: up to 1 mM
HEK293T cells = assay: control HEK293T cells lacking components of the read-out; format: cell-based; details: for Ca2+ response in cells expressing mOR-EG and Gαolf without CNGC-camp: eugenol 0.5-2mM, forskolin 20μM, n>500
[7] = molecular target: T1, mouse eugenol OR (mOR-EG); assay: mOR-EG/PLC Ca2+ response in MMDD1 macula densa cells; format: cell-based; details: range and mean
AgOR65+AgOrco = assay: Ca2+ response of HEK293T cells expressing mosquito OR AgOR65+AgOrco; format: cell-based, A. gambiae; details: 1μM, 5-s stimulation
adenylate cyclase = assay: forskolin-induced Ca2+ influx in mOR-EG/Gαs
[8] = 100μM, range over cells and mean±SEM
[9] = cumulative concentration-dependence

CC(C)c1ccc(O)cc1 [4-isopropylphenol]
AC-/PLC- mediated Ca2+ response (result in words) [1]: failed to activate any response; also recorded: no effects | solubility [2]: 15 mM (≈ 2040 µg/mL) | logP [3]: 3

CC(C)(C)c1ccc(O)cc1 [4-tert-butylphenol]
AC-/PLC- mediated Ca2+ response (result in words) [1]: failed to activate any response; also recorded: no effects

Nc1ncnc2c1ncn2[C@@H]1O[C@H](COP(=O)(O)OP(=O)(O)OP(=O)(O)O)[C@@H](O)[C@H]1O [ATP]
activation of CNGC-camp (CNGC-camp): did not induce appreciable activation of CNGC-camp

C=CCc1ccc(OC(C)=O)c(OC)c1 [acetyl eugenol]
functional bias between PLC and AC pathways (in words) [1]: activated both pathways with similar EC50 values | solubility [2]: 1.4 mM (≈ 289 µg/mL) | logP [3]: 2.7 | EC50 [4]: 348 µM | decay time 90% to 10%, PLC-dependent Ca2+ response [4]: 44 ± 1 s | time of peak, PLC-dependent Ca2+ response [4]: 19.6 ± 0.9 s | time to rise 10% to 90%, PLC-dependent Ca2+ response [4]: 7.7 ± 0.4 s | EC50 [5]: 373 ± 49 µM | decay time 90% to 10%, AC-dependent Ca2+ response [5]: 125.5 ± 5.1 s | time of peak, AC-dependent Ca2+ response [5]: 90.8 ± 3.4 s | time to rise 10% to 90%, AC-dependent Ca2+ response [5]: 27.6 ± 1.7 s

CCOc1cc(C=O)ccc1O [ethyl vanillin]
functional bias between PLC and AC pathways (in words) [1]: activated both pathways with similar EC50 values | solubility [2]: 11 mM (≈ 1830 µg/mL) | logP [3]: 1.7 | EC50 [4]: 1490 µM | decay time 90% to 10%, PLC-dependent Ca2+ response [4]: 52.3 ± 4.8 s | time of peak, PLC-dependent Ca2+ response [4]: 22.6 ± 1.5 s | time to rise 10% to 90%, PLC-dependent Ca2+ response [4]: 9.5 ± 0.8 s | EC50 [5]: 2170 ± 131 µM | decay time 90% to 10%, AC-dependent Ca2+ response [5]: 115.7 ± 10.8 s | time of peak, AC-dependent Ca2+ response [5]: 91.6 ± 5.8 s | time to rise 10% to 90%, AC-dependent Ca2+ response [5]: 36.9 ± 3.3 s

C=CCc1ccc(O)c(OC)c1 [eugenol]
slow Gαs(olf)-dependent response in dual-response cells [6]: obvious in the signal evoked by eugenol | functional bias between PLC and AC pathways (in words) [1]: activated both pathways with similar EC50 values | Ca2+ response in untransfected cells or cells expressing mOR-EG alone (HEK293T cells; 0.5-5mM, n>1000): Neither untransfected HEK293T cells nor cells expressing mOR-EG alone were sensitive | Ca2+ response in cells expressing mOR-EG and Gαolf without CNGC-camp (HEK293T cells): did not generate noticeable Ca^2+ responses | Tpeak, mOR-EG/PLC response [7]: 13 ± 0.8 s | Tdecay, mOR-EG/PLC response ([4]; 25μM): 35.0 ± 0.8 s | Tpeak, mOR-EG/PLC response ([4]; 25μM): 18.6 ± 0.8 s | Trise, mOR-EG/PLC response ([4]; 25μM): 10.8 ± 0.9 s | Tdecay, mOR-EG/PLC response [4, 8]: 49.4 ± 1.8 s | Tpeak, mOR-EG/PLC response [4, 8]: 31.5 ± 0.7 s | Trise, mOR-EG/PLC response [4, 8]: 8.4 ± 0.3 s | Tpeak, mOR-EG/PLC response ([4]; 1mM): 15.4 ± 0.4 s | Ca2+ response on removal of extracellular Ca2+, mOR-EG/Gα15 cells ([4]; 1mM, 5-s pulse): otherwise not affecting the Ca^2+ response | Tdecay, mOR-EG/PLC response ([4]; 5mM): 57.9 ± 3.8 s | Trise, mOR-EG/PLC response ([4]; 5mM): 5.6 ± 0.3 s | Hill coefficient, mOR-EG/PLC response [4, 9]: 1.2 | decay time 90% to 10%, PLC-dependent Ca2+ response [4]: 52.6 ± 1.1 s | time of peak, PLC-dependent Ca2+ response [4]: 15.4 ± 0.4 s | time to rise 10% to 90%, PLC-dependent Ca2+ response [4]: 7.6 ± 0.2 s | response kinetics vs mOR-EG responses (AgOR65+AgOrco): much faster response | EC50 [5]: 53 ± 11 µM | Tdecay, mOR-EG/AC response [5, 8]: 102 ± 11 s and 101.9 ± 10.9 s | Tpeak, mOR-EG/AC response [5, 8]: 76 ± 6 s and 75.9 ± 6.1 s | Trise, mOR-EG/AC response [5, 8]: 32 ± 3 s and 32.2 ± 3.0 s | Ca2+ response on removal of extracellular Ca2+, mOR-EG/Gαs(olf) cells ([5]; 1mM): completely abolished the response | Tdecay, mOR-EG/AC response ([5]; 5mM): 125.1 ± 4.9 s | Tpeak, mOR-EG/AC response ([5]; 5mM): 90.5 ± 2.9 s | Trise, mOR-EG/AC response ([5]; 5mM): 38.5 ± 1.5 s | Hill coefficient, mOR-EG/AC response [5, 9]: 0.97 | decay time 90% to 10%, AC-dependent Ca2+ response [5]: 128.2 ± 4.9 s | time of peak, AC-dependent Ca2+ response [5]: 90.5 ± 4.4 s | time to rise 10% to 90%, AC-dependent Ca2+ response [5]: 39.4 ± 2.2 s

C=C[C@@]1(C)CC(=O)[C@]2(O)[C@@]3(C)[C@@H](O)CCC(C)(C)[C@@H]3[C@H](O)[C@H](OC(C)=O)[C@@]2(C)O1 [forskolin]
Ca2+ response in cells expressing mOR-EG and Gαolf without CNGC-camp (HEK293T cells): did not generate noticeable Ca^2+ responses | Trise of Ca2+ influx on re-addition of 2 mM Ca2+ (adenylate cyclase; 10μM forskolin applied in 0-Ca2+, Ca2+ added 60 s after stimulation (Fig.3F)): 24.3 ± 3.1 s | effect on Ca2+ concentration (adenylate cyclase; 10 μM, 5 sec pulse, mOR-EG/Gαs(olf) cells): increased the Ca^2+ concentration | Trise of response to forskolin (adenylate cyclase; 10μM, extracellular Ca2+ present (Fig.3E)): 76.7 ± 5.7 s

C/C=C/c1ccc2c(c1)OCO2 [isosafrole]
AC-/PLC- mediated Ca2+ response (result in words) [1]: failed to activate any response; also recorded: non agonist, antagonist (*) | solubility [2]: 0.6 mM (≈ 97.3 µg/mL) | logP [3]: 3.9
